This note sets out measurements from ChEMBL document CHEMBL1135867, “Synthesis, photobiological activity and photoreactivity of methyl-thieno-8-azacoumarins, novel bioisosters of psoralen” (Bioorg Med Chem Lett, 2002).

For assay [1], the system named is Cavia porcellus. The assay can be described thus: Skin phototoxicity was evaluated after UVA irradiation at a dose of 0.05 (umol cm e-2) and formation of erythema was reported; Strong (with edema). In kind it is functional, organism-based.
Assay [2] is filed under the species Cavia porcellus. The assay can be described thus: Skin phototoxicity was evaluated after UVA irradiation at a dose of 0.2 (umol cm e-2) and formation of erythema was reported; Absent. In kind it is functional, organism-based.
The subject of another assay is HeLa. The experiment in a line: Compound was evaluated for its antiproliferative activity after UVA irradiation on human tumor HeLa cell line. In kind it is functional, cell-based. The following applies: light or radiation study.
The test system of the next assay is HL-60. The experiment in a line: Compound was evaluated for its antiproliferative activity after UVA irradiation on human tumor HL-60 cell line. The assay is classed as functional, cell-based. The following applies: HL-60, light or radiation study.

The structures appear in SMILES notation. Activity calls are given as the source filed them. The rule behind the calls is not given here. Where only a bound is given, the exact number is not on record here.

`COc1c2occc2cc2ccc(=O)oc12`: in the assay on Cavia porcellus [1], the Formation of erythema result was “Active”.

As a reminder, the IC50 is the midpoint of a concentration-inhibition curve. For the compound `Cc1sc2nc3oc(=O)cc(C)c3cc2c1C`, the Formation of erythema entry in the assay filed under Cavia porcellus [2] is “inactive”. In addition, the results for the IC50 with HeLa and in the assay on HL-60 were greater than 20 µM and 7.3 µM, respectively.

Turning to `Cc1cc(=O)oc2nc3scc(C)c3cc12`, the Formation of erythema result in the assay listed under Cavia porcellus [2] was “inactive”. In addition, the IC50 was found to be 8.9 µM in the assay on HeLa and 2.2 µM in the assay with HL-60.
